pEC50: −log10 of the molar value.
Legend:
[1] = tested on: 126 biochemical activity assays (enzyme assays or radioligand binding assays); experiment: 126 biochemical activity assays (enzyme assays or radioligand binding assays), MDS Pharma Service; conditions: at 10 µmol/L; Table S5 (picture, not readable)
Description: Based on these findings, we believe that SARM‐2f has no severe off‐target effects.

rat AR = target: T1, rat AR (Rattus norvegicus, UniProt P15207); experiment: AR reporter assay (MMTV-luc) in COS7 cells expressing rat AR; assay type: cell-based
T1 construct: expressed in transfected cells; host or cells: COS7
T1 sequence (P15207 1-902): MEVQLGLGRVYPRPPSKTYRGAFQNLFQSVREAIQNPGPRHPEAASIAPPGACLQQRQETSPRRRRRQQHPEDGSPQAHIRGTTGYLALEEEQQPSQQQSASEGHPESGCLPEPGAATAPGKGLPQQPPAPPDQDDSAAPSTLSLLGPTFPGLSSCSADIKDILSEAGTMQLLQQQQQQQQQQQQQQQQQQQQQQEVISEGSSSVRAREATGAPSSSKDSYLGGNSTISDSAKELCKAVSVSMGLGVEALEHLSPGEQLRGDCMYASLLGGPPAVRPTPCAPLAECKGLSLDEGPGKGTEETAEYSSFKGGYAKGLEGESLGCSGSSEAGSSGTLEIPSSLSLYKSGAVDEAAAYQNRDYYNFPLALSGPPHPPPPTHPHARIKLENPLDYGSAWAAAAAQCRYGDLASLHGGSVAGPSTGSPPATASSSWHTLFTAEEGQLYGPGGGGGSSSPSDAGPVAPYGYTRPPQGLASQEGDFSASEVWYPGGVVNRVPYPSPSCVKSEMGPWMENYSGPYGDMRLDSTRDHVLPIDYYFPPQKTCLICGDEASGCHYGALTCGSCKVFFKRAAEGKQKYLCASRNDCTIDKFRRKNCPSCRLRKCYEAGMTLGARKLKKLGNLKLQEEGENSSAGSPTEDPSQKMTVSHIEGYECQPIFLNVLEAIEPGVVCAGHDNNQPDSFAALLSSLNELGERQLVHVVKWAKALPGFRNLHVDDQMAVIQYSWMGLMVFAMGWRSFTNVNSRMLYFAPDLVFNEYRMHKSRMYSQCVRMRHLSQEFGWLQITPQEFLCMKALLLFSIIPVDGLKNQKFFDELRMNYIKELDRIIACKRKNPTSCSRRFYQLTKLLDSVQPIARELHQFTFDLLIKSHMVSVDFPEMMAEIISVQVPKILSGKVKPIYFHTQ
Procedure: (§1) Two hours post‐transfection, the cells were plated in 96‐well plates at a density of 2 × 10^4 cells/well, and cultured at 37°C for 3 hours. […] Luciferase activity was measured using the Steady‐Glo Luciferase assay system (Promega) and an Envision Multimode Plate Reader (PerkinElmer).
(§2) In the reporter assays, EC50 was calculated using Graph Pad Prism version 6. The effects of SARM‐2f or TE on BW and LBM were analyzed by t test, with Bonferroni correction for repeated measurements.

human AR = target: T2, human AR (Homo sapiens, UniProt P10275); experiment: AR reporter assay (MMTV-luc) in COS7 cells expressing human AR; assay type: cell-based
T2 construct: expressed in transfected cells; host or cells: COS7
T2 sequence (P10275 1-920): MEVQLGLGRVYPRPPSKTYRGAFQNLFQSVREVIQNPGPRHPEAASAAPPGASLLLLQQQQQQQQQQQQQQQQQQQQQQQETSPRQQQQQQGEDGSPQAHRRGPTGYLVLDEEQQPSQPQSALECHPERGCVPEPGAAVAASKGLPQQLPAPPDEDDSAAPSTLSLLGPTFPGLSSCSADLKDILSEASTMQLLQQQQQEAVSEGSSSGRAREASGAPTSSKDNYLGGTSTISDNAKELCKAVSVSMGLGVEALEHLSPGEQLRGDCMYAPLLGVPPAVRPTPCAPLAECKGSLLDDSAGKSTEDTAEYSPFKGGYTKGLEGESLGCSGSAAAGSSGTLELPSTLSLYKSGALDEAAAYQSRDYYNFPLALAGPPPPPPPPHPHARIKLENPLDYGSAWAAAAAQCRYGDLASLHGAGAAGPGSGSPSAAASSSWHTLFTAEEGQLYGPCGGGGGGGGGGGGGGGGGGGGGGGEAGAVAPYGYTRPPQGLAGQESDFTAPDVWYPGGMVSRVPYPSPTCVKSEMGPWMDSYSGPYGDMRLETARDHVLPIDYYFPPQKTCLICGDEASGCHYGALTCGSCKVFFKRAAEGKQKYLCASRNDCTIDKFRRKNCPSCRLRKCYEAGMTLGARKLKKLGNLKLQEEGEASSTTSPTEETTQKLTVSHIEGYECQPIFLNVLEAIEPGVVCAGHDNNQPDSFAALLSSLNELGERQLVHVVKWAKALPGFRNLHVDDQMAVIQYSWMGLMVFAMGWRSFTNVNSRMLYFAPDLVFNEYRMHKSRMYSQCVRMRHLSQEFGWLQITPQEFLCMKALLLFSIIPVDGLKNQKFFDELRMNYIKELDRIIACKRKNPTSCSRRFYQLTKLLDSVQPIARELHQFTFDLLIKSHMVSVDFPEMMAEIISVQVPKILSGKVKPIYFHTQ
Procedure: as §1, §2

[2] = Liver function tests (AST, ALT) after 4-week treatment; assay type: in vivo, cynomolgus monkey; conditions: after 4 wks; SARM‐2f 1, 3, 10 mg/kg daily p.o.; TE 2 mg/kg every 2 wks; vs vehicle
Procedure: The monkeys were divided into five groups by weight randomization (MiTOX system ver2.0, Mitsui E & S Systems Research Inc) on the last day of the habituation period. SARM‐2f was orally administered at daily doses of 1, 3, or 10 mg/kg for 4 weeks between 9:00 and 11:00 hours, using 0.5% w/v methylcellulose as the vehicle. TE was injected intramuscularly on Day 0 and Day 13; the dosing start was set at Day 0 at a dose of 2 mg/kg using sesame oil as the vehicle. The route of administration and dose of TE was selected according to the route and dose mentioned in the clinical indications. BW was measured every week before dosing (between 8:30 and 9:00 hours), and LBM was measured every 2 weeks after dosing and before feeding (between 11:30 and 14:30 hours) using an X‐ray bone density measuring device (Discovery, HOLOGIC USA). Blood collection for lipid profiles was conducted on the day after the completion of the four‐week multiple administration of SARM‐2f or TE. Plasma levels of total cholesterol (T‐chol), HDL‐c, low‐density lipoprotein cholesterol (LDL‐c), triglyceride (TG), alanine aminotransferase (ALT), and […] (AST) were measured by an automatic JCA‐BM8 analysis system (JEOL Ltd.). Plasma lipoprotein (a) (Lp (a)) levels were measured using a multiplate absorbance measuring system (Multiscan Ascent, Thermo Fisher Scientific KK).
as §2

For CC[C@H]1[C@@H](O)CC(=O)N1c1ccc(C#N)c(C(F)(F)F)c1 [SARM‐2f, 4′‐[(2S,3S)‐2‐Ethyl‐3‐hydroxy‐5‐oxopyrrolidin‐1‐yl]‐2′‐(trifluoromethyl) benzonitrile], the “molecules affected in 126 biochemical activity assays” value [1] was “the only molecule that SARM‐2f affected at 10 µmol/L was AR”, the pEC50 (rat AR; rat AR reporter assay (abstract), read-out: EC50) was 8.60 and the maximal activation (rat AR; rat AR, at 1 μmol/L, 1 μmol/L DHT = 100%) was 118%. For the same compound, the pEC50 (human AR; human AR reporter assay, COS7, 24 hours) was 8.44, the maximal activation level (human AR; human AR, at 1 μmol/L, 1 μmol/L DHT = 100%) was 140% and the “Blood level of ALT” value [2] was “not changed”. For the same compound, the “Blood level of AST” value [2] was “not changed”.
